Usually IC50 stands for the concentration that inhibits the measured activity by half. A higher IC50 goes with a need for much substance.

The target of this test is Mushroom tyrosinase (Agaricus bisporus, UniProt O42713+Q00024+C7FF04+C7FF05).
Description: Inhibition of mushroom tyrosinase using L-DOPA as substrate preincubated for 5 mins followed by substrate addition measured for 10 mins by spectrophotometric method
`O=C(/C=C/c1ccc(O)cc1)NCCc1ccc(O)c(O)c1` had a 50% inhibitory concentration (IC50) of 4.3 mM.
Take `COc1cc(O)c2c(=O)c(O)c(-c3cc(O)c(O)c(O)c3)oc2c1OC(C)=O`: the IC50 is greater than 5 mM.
With `COc1cc(O)c2c(=O)c(O[C@@H]3O[C@@H](C)[C@H](O)[C@@H](O)[C@H]3O)c(-c3ccc(O)c(O)c3)oc2c1OC(C)=O` the figure was greater than 5 mM; with `COc1cc(CO[C@@H]2O[C@H](CO)[C@@H](O)[C@H](O)[C@H]2O)cc(OC)c1OC`, greater than 5 mM.
The figure for `COc1cc(CO[C@@H]2O[C@H](CO[C@@H]3O[C@@H](C)[C@H](O)[C@@H](O)[C@H]3O)[C@@H](O)[C@H](O)[C@H]2O)cc(OC)c1OC` is greater than 5 mM; for `COc1cc(O)c2c(=O)c(O[C@@H]3O[C@@H](C)[C@H](O)[C@@H](O)[C@H]3O)c(-c3cc(O)c(O)c(O)c3)oc2c1O` it is 1.2 mM; for `COc1cc(O)c2c(=O)c(O)c(-c3cc(O)c(O)c(O)c3)oc2c1O` it is greater than 5 mM.
The figure for `COc1cc(O)c2c(=O)c(O[C@@H]3O[C@@H](C)[C@H](O)[C@@H](O)[C@H]3O)c(-c3ccc(O)c(O)c3)oc2c1O` is 2.2 mM; for `COc1cc(O)c2c(=O)c(O[C@@H]3O[C@@H](C)[C@H](O)[C@@H](O)[C@H]3O)c(-c3cc(O)c(O)c(O)c3)oc2c1O[C@@H]1O[C@H](CO)[C@@H](O)[C@H](O)[C@H]1O` it is 0.9 mM; for `COc1cc(O)c2c(=O)c(O[C@@H]3O[C@@H](C)[C@H](O)[C@@H](O)[C@H]3O)c(-c3ccc(O)c(O)c3)oc2c1O[C@@H]1O[C@H](CO)[C@@H](O)[C@H](O)[C@H]1O` it is 4 mM.
Take `COc1cc(O)c2c(=O)c(O[C@@H]3O[C@@H](C)[C@H](O)[C@@H](O)[C@H]3O)c(-c3cc(O)c(O)c(O)c3)oc2c1OC(C)=O`: the IC50 is 4.7 mM.
With `COc1cc(O)c2c(=O)c(O)c(-c3ccc(O)c(O)c3)oc2c1O` the figure was greater than 5 mM; with `COc1cc(O)c2c(=O)c(O[C@@H]3O[C@@H](C)[C@H](O)[C@@H](O)[C@H]3O)c(-c3cc(O)c(O)c(O)c3)oc2c1`, 1.1 mM; with `COc1cc(O)c2c(=O)c(O)c(-c3ccc(O)c(O)c3)oc2c1OC(C)=O`, greater than 5 mM.
The figure for `C[C@@H]1O[C@@H](Oc2c(-c3cc(O)c(O)c(O)c3)oc3cc(O)cc(O)c3c2=O)[C@H](O)[C@H](O)[C@H]1O` is 2 mM.
The figure for `Oc1cc(O)c2c(c1)O[C@H](c1ccc(O)c(O)c1)[C@H](O)C2` [(-)-EPICATECHIN] is greater than 5 mM; for `Oc1cc(O)c2c(c1)O[C@H](c1cc(O)c(O)c(O)c1)[C@H](O)C2` [EPIGALLOCATECHIN] it is 0.7 mM; for `Oc1cc(O)c2c(c1)O[C@H](c1cc(O)c(O)c(O)c1)[C@@H](O)C2` [GALLOCATECHIN] it is 0.16 mM.
The compound `O=C(/C=C/c1ccc(O)cc1)NCCc1ccc(O)cc1` [N-P-COUMAROYL TYRAMINE] came in with an IC50 greater than 5 mM.
The figure for `COc1cc(/C=C/C(=O)NCCc2ccc(O)cc2)ccc1O` [N-TRANS-FERULOYL TYRAMINE] is greater than 5 mM; for `COc1cc(/C=C/C(=O)NCCc2ccc(O)c(O)c2)ccc1O` [N-TRANS-FERULOYLDOPAMINE] it is greater than 5 mM.
The figure for `Cc1c(C)c2c(c(C)c1O)CCC(C)(C(=O)O)O2` (configuration not stated) [TROLOX] is 0.7 mM.

Source of the values: ChEMBL document CHEMBL3994603, “Antioxidant Flavonols and Phenolic Compounds from Atraphaxis frutescens and Their Inhibitory Activities against Insect Phenoloxidase and Mushroom Tyrosinase” (J Nat Prod, 2016).
